Source: US6413775B1, “Polyamine analog-activated SSAT gene therapy” (Health Research, Inc., priority 1999, dated 2002)
Read-outs that look alike come from different tables or passages of the source.

Legend:
[1] = test system: spermidine-spermine N^1-acetyltransferase (SSAT); experiment: SSAT enzyme activity in clone H-10 cells ±Dox treated with DENSPM; type: cell-based, human; conditions: for increase in SSAT activity: 10 μM DENSPM; for DENSPM-induced SSAT activity: cells transfected with human SSAT cDNA; for SSAT Activity / SSAT Effects: Activity (fold): 48 h; for SSAT Activity: relative to closed untreated = 1; for SSAT Effects: Activity (fold): DENSPM 10 μM
Method: (§1) A MCF-7 breast carcinoma cell line stably transfected with a tetracycline-off transfection system was purchased from Clontech Laboratories Inc. (Palo Alto, Calif.). The cells were cultured in Dulbecco's Modified Eagle's Medium (DMEM; Life Technologies, Gaithersburg, Md.), supplemented with 2 mM glutamine, 10% fetal bovine serum, penicillin at 100 U/ml, streptomycin at 100 U/ml and the antibiotic G418 (Life Technologies) at 100 μg/ml at 37° C. in the presence of 5% CO2.Cells were harvested by trypsinization and counted electronically (Coulter Model ZM, Coulter Electronics, Hialeah, Fla.). During treatment with polyamines or analogs, 1 mM aminoguanidine was routinely included in the media to prevent enzymatic oxidation to toxic products.
(§2) Total RNA was extracted with guanidine isothiocyanate and purified by the commonly used cesium chloride gradient centrifugation. Human SSAT cDNA probe (Xiao et al, 1991, supra) was used in Northern blot analyses. ODC and SSAT enzyme activities were assayed as reported earlier (Kramer et al., 1995, J. Biol. Chem. 270, 2124-2132.31). Polyamines, their acetylated derivatives and the polyamine analog DENSPM were measured by high performance liquid chromatography as previously described in detail by Kramer et al. (Kramer et al., 1993, supra), which method is incorporated herein by reference.
(§3) To enhance the growth inhibitory effects of DENSPM, and to more definitively examine the relationship between SSAT overexpression and cell growth, a cell line was developed in which SSAT expression is conditionally regulated by doxycycline (DOX) an analog of tetracycline which penetrates cells more effectively. MCF-7 cells containing the pTet-Off plasmid were transfected with the PTRE/expression plasmids described above using the Lipofectin method (Notarangelo et al., 1997, Focus, 19, 58-59, incorporated herein by reference). To facilitate clone selection, cells were co-transfected with a pTK-Hyg vector (Clontech Laboratories, Inc.). Transfected clones resistant to […] hygromycin were selected and tested for SSAT enzyme activity and/or mRNA in the presence or absence of 200 ng/ml Dox [+Dox and −Dox, respectively (Clontech Laboratories, Inc)]. In the presence of Dox, SSAT transcription is closed; in the absence of Dox, SSAT transcription is open. […] Clones, which expressed the lowest basal levels of SSAT activity or mRNA in +Dox and the greatest induced level of SSAT activity or mRNA −Dox, were selected for further study. Clones were maintained continuously under +Dox conditions until experiments were initiated.
(§4) In this table are presented the effects of conditional overexpression on DENSPM induced SSAT mRNA and activity and on polyamine pool depletion. When exposed to 10 μM DENSPM for 24 h, MRNA levels increased by 4-fold in induced cells and remained at ^˜20-fold in uninduced cells. Presumably, some rate-limiting step prevented DENSPM from increasing MRNA beyond the already high levels in these cells.

[2] = test system: ornithine decarboxylase (ODC); experiment: ODC enzyme activity in H-10 cells treated with DENSPM; type: cell-based, human; conditions: both +Dox and -Dox cells, irrespective of SSAT induction
Method: as §1
as §2, with “reference. […]” for “reference.”

[3] = test system: spermidine-spermine N^1-acetyltransferase (SSAT); conditions: in many tumor cells; cited from earlier work
[4] = test system: MCF-7/hSc clone H-10 cells; experiment: Growth inhibition and dose-response of clone H-10 cells (MCF-7/hSc) ±Dox by DENSPM; type: cell-based, human; conditions: for growth inhibition: by 48 h; for Growth Effects: Onset of cytotoxicity: DENSPM 10 μM
Method: as §1
(§5) Relative growth inhibition by DENSPM. The relative antiproliferative effect exerted by DENSPM in H-10 and M-3 cells grown ±Dox was studied over an extended (8 d) time period. As shown in the FIG. 9, H-10-Dox cells were strikingly more sensitive to the antiproliferative action of the DENSPM than +Dox cells. Less than 15% growth inhibition was achieved by 48 h in +Dox H-10 cells compared to >80% in −Dox cells (FIG. 9). […] As a generality, DENSPM-mediated growth inhibition tended to be more cytotoxic during SSAT induction as indicated by the rapid loss in cell number (FIG. 9).
The increased sensitivity of SSAT induced H-10 cells to DENSPM was quantitated by dose-response analysis. Cells were grown for 48 h ±Dox and then exposed to increasing concentrations of DENSPM for 48 h (FIG. 10). In the IC50 comparisons, −Dox cells were about approximately 100-fold more sensitive to DENSPM than +Dox cells (i.e. comparing IC50 values of 0.2 and 20 μM, respectively).

[5] = test system: MCF-7/mSg clone M-3 cells; experiment: Growth inhibition of clone M-3 cells (MCF-7/mSg) ±Dox by DENSPM; type: cell-based, human
Method: as §1, §5

[6] = test system: Polyamine pools in H-10 cells; experiment: Polyamine pools by HPLC in H-10 cells ±Dox treated with DENSPM; type: cell-based, human; conditions: for Polyamine Pools: AcSpd / Polyamine Pools: AcSpm / Polyamine Pools: Put / Polyamine Pools: Spd / Polyamine Pools: Spm: 48 h
Method: as §1, §2, §4

SSAT mRNA = experiment: Northern blot analysis of SSAT mRNA in clone H-10 cells ±Dox treated with DENSPM; type: cell-based, human; conditions: for SSAT mRNA / SSAT Effects: mRNA (fold): 48 h; for SSAT mRNA: relative to closed untreated = 1; for SSAT Effects: mRNA (fold): DENSPM 10 μM
Method: as §1, §2, §3, §4

CCNCCCNCCCNCCCNCC [DENSPM, N^1, N^11diethylnorspermine]
increase in SSAT activity ([1]; +Dox cells): > 80 fold
DENSPM-induced SSAT activity ([1]; +Dox conditions (closed)): ~90 fold
increase in SSAT activity ([1]; -Dox cells): > 1500 fold
DENSPM-induced SSAT activity ([1]; -Dox conditions (open)): 1700 fold
SSAT Activity ([1]; Closed (+Dox) +DENSPM): 89 X
SSAT Effects: Activity (fold) ([1]; Closed (Dox 200 ng/ml)): 89X fold
SSAT Activity ([1]; Open (-Dox) +DENSPM): 1,700 X
SSAT Effects: Activity (fold) ([1]; Open (no Dox)): 1700X fold
difference in SSAT activity with DENSPM treatment, open vs closed ([1]; from Table 3): about 20 fold
effect on ODC activity [2]: suppressed ODC activity
induction of SSAT activity [3]: exceed 1000 fold
growth inhibition ([4]; +Dox H-10 cells): Less than 15%
IC50 ([4]; +Dox H-10 cells, grown 48 h ±Dox, then DENSPM 48 h, read-out: IC50 of DENSPM (growth)): 20 µM
growth inhibition ([4]; -Dox H-10 cells): > 80%
IC50 ([4]; -Dox H-10 cells, grown 48 h ±Dox, then DENSPM 48 h, read-out: IC50 of DENSPM (growth)): 0.2 µM
IC50 ([4]; Closed (Dox 200 ng/ml), 48 h, read-out: Growth Effects: IC50 Dose): 200 µM
Growth Effects: Onset of cytotoxicity ([4]; Closed (Dox 200 ng/ml)): 4 days
Growth Effects: Onset of cytotoxicity ([4]; Open (no Dox)): immediate
growth inhibition ([5]; induced M-3 cells): 78%
growth inhibition ([5]; uninduced M-3 cells): 25%
Polyamine Pools: AcSpd ([6]; Closed (+Dox) +DENSPM): 20 pmol/10^6 cells
Polyamine Pools: AcSpm ([6]; Closed (+Dox) +DENSPM): 50 pmol/10^6 cells
Polyamine Pools: Put ([6]; Closed (+Dox) +DENSPM): 50 pmol/10^6 cells
Polyamine Pools: Spd ([6]; Closed (+Dox) +DENSPM): 110 pmol/10^6 cells
Polyamine Pools: Spm ([6]; Closed (+Dox) +DENSPM): 750 pmol/10^6 cells
Polyamine Pools: AcSpd ([6]; Open (-Dox) +DENSPM): <5 pmol/10^6 cells
Polyamine Pools: AcSpm ([6]; Open (-Dox) +DENSPM): 20 pmol/10^6 cells
Polyamine Pools: Put ([6]; Open (-Dox) +DENSPM): <5 pmol/10^6 cells
Polyamine Pools: Spd ([6]; Open (-Dox) +DENSPM): <5 pmol/10^6 cells
Polyamine Pools: Spm ([6]; Open (-Dox) +DENSPM): 65 pmol/10^6 cells
depletion of all three polyamines ([6]; by 48 h, both +Dox and -Dox cells): near total depletion
SSAT mRNA levels increase (SSAT mRNA; 10 μM DENSPM for 24 h, 'induced cells' as printed): 4 fold
SSAT mRNA levels (SSAT mRNA; 10 μM DENSPM for 24 h, 'uninduced cells' as printed): ~20 fold
SSAT mRNA (SSAT mRNA; Closed (+Dox) +DENSPM): 8 X
SSAT Effects: mRNA (fold) (SSAT mRNA; Closed (Dox 200 ng/ml)): 8X fold
SSAT mRNA (SSAT mRNA; Open (-Dox) +DENSPM): 20 X
SSAT Effects: mRNA (fold) (SSAT mRNA; Open (no Dox)): 20X fold
